In patent US11492325B2, “Compounds as inhibitors of sodium channels” (Human BioMolecular Research Institute, priority 2016, dated 2022):
“And” between values parts separate entries of the source, which are not always exact repeats. Equal values may be shown once. Read-outs that look alike come from different tables or passages of the source. Values belong to the compound of their own block, whether it stands above or below them.

How the values were obtained:
[1] = system: normal human induced pluripotent stem cell (hiPSC) cardiomyocyte; details: for Cessation of Beating / WT-Fold Prolongation / WT-Prolongation Dose: normal hiPSC cardiomyocytes; for WT-Prolong. Dose: 'No AP' wraps to 'No AP Prolong.'; for WT-Fold Prolongation: APD; for WT-Cess. Dose / WT-EC50 (μM)-Prolong.: deuterated vs non-deuterated; for WT-EC50 (μM)-Prolong.: 'No AP' wraps to 'No AP prolongation'
[2] = biological target: Nav1.5 sodium channel, peak current (INaP) (Homo sapiens, UniProt Q14524, form not given); assay: in vitro
Procedure: (§1) This provided data to investigate the physiology and action of target compounds on individual ion channels. The assay used standardized protocols for culturing and conducting conventional whole cell recording that have been previously developed for both current and voltage-clamp to characterize action potentials using transfected cells. Briefly, the Nav1.5 sodium channel was transfected into HEK293 cells. […] Briefly, cells were plated on 0.1% gelatin-coated 35-mm plastic Petri dishes. […] Data was reported as IC50 values±STD (Table 1).

[3] = biological target: Nav1.5 sodium channel transfected into HEK293 cells (Homo sapiens, UniProt Q14524); assay: in vitro
Procedure: as §1

[4] = Solubility (water; 10:30:60% DMSO:PEG400:water vehicle); type: physicochemical
Male BALBc mice = details: mouse, in vivo, ip, 200 mg/kg
Description: Male BALBc mice (20-22 g) were used throughout these studies. The animals were maintained in a temperature-controlled room with 12-hr periods of light and darkness and had continuous access to water and animal food. […] Groups contained 2-4 animals.

[5] = biological target: Na+ channel currents in LQT3 patient-derived cardiomyocytes (Homo sapiens, UniProt Q14524); assay: Whole cell patch clamp of Na+ currents (INaP, INaL) in hIPSC LQT3 patient-derived cardiomyocytes; type: cell-based
Procedure: Patch clamp recordings from hIPSC LQT3 patient-derived cardiomyocytes for Na+ channel currents were recorded in response to computed voltage waveforms that simulated adult ventricular action potentials.
The basis for LQT3 is a mutation in SCN5a that encodes the voltage-gated Na channel responsible for cardiac action potential. The Na current (INa) has peak and late components: the peak component initiates the action potential but as voltage rises, the channel normally inactivates. […] The LQT3 mutation impairs inactivation. The late component is then enlarged, resulting in action potential prolongation. […] Whole cell patch clamp electrophysiology experiments in LQTS3 cardiomyocytes helped determine the functional activity of drug candidates for inhibition of the late sodium current in the cells. Thus, we tested compounds for Peak (INaP) and Late (INaL) components. They were recorded in a “whole-cell” voltage-clamp mode configuration in response to voltage stimulation steps from −80 mV to +40 mV and their IC50 values determined (Table 1).

[6] = Metabolism in human hepatic S9; details: for Human S-9, nmol metab./incub.: 0.4 mg protein/incubation, 30 mins, 37° C.
Procedure: (§2) A typical incubation contained rat, mouse, dog or human liver microsomes (0.4-0.5 mg of protein), 100 mM potassium phosphate buffer (pH7.4), 50 μM test compound, an NADPH-generating system consisting of 0.5 mM NADP^+, 0.5 mM glucose-6-phosphate, 1 IU/mL glucose-6-phosphate dehydrogenase, 1 mg/mL diethylenetriaminepentaaceticacid (DETAPAC), and 3 mM MgCl2 in a final incubation volume of 0.25 mL. […] After centrifugation at 3000 rpm for 5 min, the organic fraction was collected, the solvent was removed with a stream of argon and the residue was reconstituted in 125 μL of MeOH and 125 μL H2O, mixed thoroughly, centrifuged at 13,000 rpm for 5 min and analyzed by high performance liquid chromatography. Samples were run on a Hitachi D-7000 HPLC system using a L-7100 analytical pump, L-7400 UV-Visible variable wavelength detector, and L-7600 automatic sample injector. […] Disappearance of the analyte was monitored over time. A plot of the area under the curve for the normalized analyte versus time afforded the half-life values and kapp.
(§3) Microsomes contain CYPs and FMO metabolic enzymes. S9 contains soluble enzymes (i.e., aldehyde oxidase, MAO, etc.).

[7] = system: cardiomyocytes derived from hiPSCs from a LQTS3 patient; assay: cells; details: Homo sapiens, Cardiomyocyte; for IC50: read-out: LQT-IC50 (uM)-Shortening
[8] = biological target: hERG potassium channel (IKr) (Homo sapiens, UniProt Q12809); assay: Automated patch clamp, hERG (IKr) expressed in CHO cells; details: for IC50: hERG (IKr) IC50, CHO cells
[9] = system: cardiomyocytes derived from hiPSCs from a LQTS3 patient; details: for LQT-Cess. Dose: deuterated vs non-deuterated
[10] = Metabolic stability in human liver microsomes; type: in vitro ADME; details: for half-life at 50 μM: human, liver microsomes, pH 7.4, liver microsomes + NADPH, species (human), read-out: metabolic stability in liver microsomes T1/2
Procedure: as §2

[11] = Chemical stability in PBS buffer at pH 7.4 or 3.0, 37° C.; type: physicochemical; details: pH 7.4, 100 μM in PBS, 1% Ethanol, read-out: Half-Life @ pH 7.4 and 37° C.
Procedure: A typical incubation contained 100 μM of the test compound prepared in PBS buffer (pH 7.4 or 3.0, 50 mM) with 1% Ethanol. The test compounds were incubated at 37° C. An aliquot from incubations was taken at various times and injected onto an RP-HPLC system as described above. Disappearance of the analyte was monitored over time.

CYP2D6 = CYP2D6 (Homo sapiens, UniProt P10635); assay: Metabolism with highly purified CYP2D6 (HPLC); details: 50 min incubation
Procedure: as §2
Accordingly, we examined the metabolism of leads with highly purified CYPs with an HPLC method (Example 8).

[12] = Metabolism in mouse hepatic S9; details: 0.4 mg protein/incubation; 30 mins, 37° C.
Procedure: as §2, §3

Human FMO1 = biological target: T1, Human FMO1 (Homo sapiens, UniProt Q01740); assay: Metabolism with human FMO1 (nmol metabolism/incubation); details: 15 μg enzyme/incubation; 30 mins, 37° C.
T1 sequence (Q01740 1-532): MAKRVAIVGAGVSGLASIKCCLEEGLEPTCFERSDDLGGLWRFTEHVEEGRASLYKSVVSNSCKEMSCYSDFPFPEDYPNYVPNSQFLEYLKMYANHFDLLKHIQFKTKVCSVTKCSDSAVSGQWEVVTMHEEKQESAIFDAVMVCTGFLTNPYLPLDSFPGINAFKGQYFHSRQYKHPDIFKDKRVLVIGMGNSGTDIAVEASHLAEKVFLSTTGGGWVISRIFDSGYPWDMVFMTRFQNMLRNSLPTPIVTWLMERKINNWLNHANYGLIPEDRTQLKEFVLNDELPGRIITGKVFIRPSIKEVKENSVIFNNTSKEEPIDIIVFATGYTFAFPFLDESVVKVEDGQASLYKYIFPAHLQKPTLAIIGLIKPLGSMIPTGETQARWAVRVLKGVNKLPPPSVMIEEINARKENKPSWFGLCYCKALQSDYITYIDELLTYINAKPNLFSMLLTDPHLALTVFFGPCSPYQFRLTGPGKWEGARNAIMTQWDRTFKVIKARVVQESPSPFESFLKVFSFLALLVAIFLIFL

CYP3A4 = CYP3A4 (Homo sapiens, UniProt P08684); assay: Metabolism with highly purified CYP3A4 (HPLC); details: 3 pmol enzyme/incubation; 30 mins, 37° C.
[13] = system: normal human induced pluripotent stem cell (hiPSC) cardiomyocyte; assay: cells; details: read-out: WT-EC50 (μM) Prolongation
[14] = whole-cell voltage clamp, steps -80 mV to +40 mV, table title says transfected CHO cells, read-out: IC50 for INaL
[15] = whole-cell voltage clamp, steps -80 mV to +40 mV, table title says transfected CHO cells, read-out: IC50 for INaP
[16] = read-out: LQT-EC50 (μM)-Shortening
[17] = 'No AP' wraps to 'No AP shortening'

Sequence of hERG potassium channel (IKr) (Q12809 whole entry): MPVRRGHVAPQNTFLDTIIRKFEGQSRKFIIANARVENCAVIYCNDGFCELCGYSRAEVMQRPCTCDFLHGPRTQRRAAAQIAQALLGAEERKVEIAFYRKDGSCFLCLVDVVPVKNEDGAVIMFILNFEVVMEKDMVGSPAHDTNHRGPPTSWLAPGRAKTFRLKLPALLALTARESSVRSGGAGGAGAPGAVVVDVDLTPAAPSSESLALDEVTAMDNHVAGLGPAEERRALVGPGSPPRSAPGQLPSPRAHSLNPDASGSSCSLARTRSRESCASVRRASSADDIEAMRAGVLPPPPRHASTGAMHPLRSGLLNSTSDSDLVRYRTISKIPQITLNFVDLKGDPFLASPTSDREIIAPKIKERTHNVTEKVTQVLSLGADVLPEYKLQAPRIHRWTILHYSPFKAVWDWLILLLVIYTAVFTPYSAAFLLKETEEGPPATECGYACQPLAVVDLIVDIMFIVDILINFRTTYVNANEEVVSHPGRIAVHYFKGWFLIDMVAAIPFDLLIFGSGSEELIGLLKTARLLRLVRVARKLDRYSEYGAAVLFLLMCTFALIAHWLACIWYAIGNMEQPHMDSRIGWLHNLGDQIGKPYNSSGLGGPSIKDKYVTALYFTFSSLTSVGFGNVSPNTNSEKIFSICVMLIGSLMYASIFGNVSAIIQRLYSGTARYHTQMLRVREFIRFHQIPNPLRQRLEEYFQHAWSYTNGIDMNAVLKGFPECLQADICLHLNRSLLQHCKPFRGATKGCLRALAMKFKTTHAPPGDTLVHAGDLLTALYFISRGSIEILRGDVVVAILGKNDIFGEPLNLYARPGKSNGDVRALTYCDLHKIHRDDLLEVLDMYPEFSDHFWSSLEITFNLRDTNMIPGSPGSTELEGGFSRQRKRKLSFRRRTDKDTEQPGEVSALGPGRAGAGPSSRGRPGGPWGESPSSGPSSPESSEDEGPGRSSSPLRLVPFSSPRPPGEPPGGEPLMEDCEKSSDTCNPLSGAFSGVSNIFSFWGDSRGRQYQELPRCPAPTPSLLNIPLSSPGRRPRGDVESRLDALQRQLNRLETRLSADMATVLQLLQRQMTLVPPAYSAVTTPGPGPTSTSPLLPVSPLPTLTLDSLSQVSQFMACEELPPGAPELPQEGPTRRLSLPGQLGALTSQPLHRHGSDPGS
Sequence of CYP2D6 (P10635 whole entry): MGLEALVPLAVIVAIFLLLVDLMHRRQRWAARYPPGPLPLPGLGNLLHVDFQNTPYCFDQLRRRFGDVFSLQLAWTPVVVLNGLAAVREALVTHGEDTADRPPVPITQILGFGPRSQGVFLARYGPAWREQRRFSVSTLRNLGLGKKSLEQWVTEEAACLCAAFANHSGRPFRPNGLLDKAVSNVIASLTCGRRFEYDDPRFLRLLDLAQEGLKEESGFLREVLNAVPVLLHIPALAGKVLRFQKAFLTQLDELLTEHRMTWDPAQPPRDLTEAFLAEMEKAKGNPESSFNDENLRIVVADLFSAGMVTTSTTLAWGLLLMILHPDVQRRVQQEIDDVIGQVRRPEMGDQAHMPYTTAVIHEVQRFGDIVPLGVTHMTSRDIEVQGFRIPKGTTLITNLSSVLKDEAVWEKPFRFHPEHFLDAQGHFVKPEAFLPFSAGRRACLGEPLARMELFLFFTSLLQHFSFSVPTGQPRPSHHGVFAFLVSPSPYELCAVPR
Sequence of CYP3A4 (P08684 whole entry): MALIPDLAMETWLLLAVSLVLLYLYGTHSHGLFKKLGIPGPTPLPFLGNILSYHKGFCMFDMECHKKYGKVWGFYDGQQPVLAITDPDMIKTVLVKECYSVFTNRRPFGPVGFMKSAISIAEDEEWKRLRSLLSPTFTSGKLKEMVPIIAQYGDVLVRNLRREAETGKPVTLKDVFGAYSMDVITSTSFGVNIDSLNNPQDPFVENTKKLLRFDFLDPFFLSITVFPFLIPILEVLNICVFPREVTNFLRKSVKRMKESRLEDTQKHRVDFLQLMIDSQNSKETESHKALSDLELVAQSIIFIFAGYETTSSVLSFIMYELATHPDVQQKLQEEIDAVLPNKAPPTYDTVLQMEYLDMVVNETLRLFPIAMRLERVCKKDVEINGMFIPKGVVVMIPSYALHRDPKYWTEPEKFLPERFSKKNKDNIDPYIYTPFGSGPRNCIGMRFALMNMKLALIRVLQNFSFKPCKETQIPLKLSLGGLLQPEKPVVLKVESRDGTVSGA

Compound: COCCNC(COc1cccc(C)c1C)c1ccccc1 (racemic) [Compound 36, 2-(2,3-dimethylphenoxy)-N-methoxy-ethyl-1-phenylethanamine]
Cessation of Beating [1]: None
IC50 ([2]; Peak Na+ (INaP) IC50): 25.8 µM
IC50 [3]: 0.747 µM
solubility (in words) [4]: good solubility
behavioral/toxic effects at 200 mg/kg (Male BALBc mice): slight lethargy
IC50 [5, 14]: 0.38 µM
IC50 [5, 15]: 51.8 µM
metabolism in human liver S-9 judged by HPLC [6]: detectably metabolized
IC50 [7]: 5.73 µM
IC50 [8]: 27.6 µM
IC50 ([8]; Example 2): 27.6 µM
DKr/NaL ([8]; ratio hERG IC50/late Na IC50): 36.9
DNaP/Kr ([8]; ratio peak Na IC50/hERG IC50): 0.9
DKr/NaL ([8]; ratio, Example 2): 36.9
DNaP/Kr ([8]; ratio, Example 2): 0.93
LQT-Cessation Dose ([9]; LQT3 cardiomyocytes): 200 µM
LQT-Fold Shortening ([9]; LQT3 cardiomyocytes): 1.508
metabolism in human liver microsomes judged by HPLC [10]: metabolized

Compound: Cc1cc(C)cc(OCC(N)c2ccccc2)c1.Cl (racemic) [Compound 70, (rac)-(+)-2-(3,5-dimethylphenoxy)-1-phenylethanamine hydrochloride]
WT-Prolong. Dose [1]: No AP
WT-Fold Prolongation [1]: None
WT-Cess. Dose [1]: 66 µM
WT-EC50 (μM)-Prolong. [1]: No AP
Cessation of Beating [1]: 66 µM
WT-Prolongation Dose [1]: None
IC50 [2]: 18.9 µM
IC50 ([2]; Peak Na+ (INaP) IC50): 20.1 µM
DNap/NaL ([3]; ratio peak IC50/late IC50): 103
DNap/NaL ([3]; ratio peak/late IC50, Example 2, hydrochloride): 104 and 100.5
solubility (in words) [4]: good solubility
behavioral/toxic effects at 200 mg/kg (Male BALBc mice): slight lethargy
half-life at 100 μM [11]: > 30 days
Ratio Mex INaL/Lead INaL ([5]; potency relative to Mexiletine): 94.4
IC50 [5, 14]: 0.54 µM
IC50 [5, 15]: 171 µM
metabolism in human liver S-9 judged by HPLC [6]: detectably metabolized
EC50 [7, 16]: < 0.8 µM
IC50 [7]: 0.0013 µM
IC50 [8]: 6.2 µM
IC50 ([8]; Example 2): 6 µM and 6.2 µM
DKr/NaL ([8]; ratio hERG IC50/late Na IC50): 34.0
DNaP/Kr ([8]; ratio peak Na IC50/hERG IC50): 3.0
DKr/NaL ([8]; ratio, Example 2): 34.0
DNaP/Kr ([8]; ratio, Example 2): 3.0
LQT-Fold Shortening [9, 17]: 1.279
LQT-Shortening Dose [9, 17]: 7.4 µM
LQT-Cessation Dose ([9]; LQT3 cardiomyocytes): 66 µM
LQT-Fold Shortening ([9]; LQT3 cardiomyocytes): 1.279
LQT-Cess. Dose [9]: 66 µM
metabolism in human liver microsomes judged by HPLC [10]: metabolized
half-life at 50 μM [10]: > 0.0417 days
nmols metabolized, CYP2D6 (CYP2D6): 4.6 nmols
nmols/μg CYP, CYP2D6 (CYP2D6): .345 nmols/μg CYP
pmols product/μg CYP/min, CYP2D6 (CYP2D6): 6.92 pmols product/μg CYP/min

Compound: Cc1cccc(C)c1OCC(N)c1ccccc1 (racemic) [Phenyl Mexiletine]
Mouse S-9, nmol metab./incub. [12]: 2.5 nmol metab./incub.
Human FMO1, nmol metab./incub. (Human FMO1): 0.33 nmol metab./incub.
Human S-9, nmol metab./incub. [6]: 1.2 nmol metab./incub.
Human CYP3A4, nmol metab./incub. (CYP3A4): 2.3 nmol metab./incub.

solubility (in words) [4]: good solubility
half-life at 100 μM [11]: > 30 days
IC50 ([5]; LQT3 patient-derived cardiomyocytes, read-out: NaI channel Late (INaL) IC50): 1.74 µM
IC50 [5, 14]: 1.7 µM
IC50 [5, 15]: 102 µM
metabolism in human liver S-9 judged by HPLC [6]: detectably metabolized
half-life at 50 μM [10]: > 0.0417 days
Compound: Cc1ccccc1OCC(N)c1ccccc1 (stereo not shown) [Compound 25, 1-phenyl-2-(o-tolyloxy)ethanamine]

Compound: Cl.NC(COc1cc(C(F)(F)F)cc(C(F)(F)F)c1)c1ccccc1 (stereo not shown) [Compound 78, 2-(3,5-bis(trifluoromethyl)phenoxy)-1-phenylethan-1-amine]
WT-Prolong. Dose [1]: No AP
WT-Fold Prolongation [1]: None
WT-Cess. Dose [1]: 133 µM
WT-EC50 (μM)-Prolong. [1]: No AP
Cessation of Beating [1]: 133 µM
WT-Prolongation Dose [1]: None
IC50 ([2]; Peak Na+ (INaP) IC50): 20 µM
DNap/NaL ([3]; ratio peak IC50/late IC50): 19.4
DNap/NaL ([3]; ratio peak/late IC50, Example 2): 19.4
solubility (in words) [4]: good solubility
half-life at 100 μM [11]: > 30 days
EC50 [7, 16]: 23.1 µM
IC50 [7]: 23.1 µM
IC50 ([8]; Example 2): 7.2 µM
DKr/NaL ([8]; ratio, Example 2): 7.0
DNaP/Kr ([8]; ratio, Example 2): 2.77
LQT-Fold Shortening [9, 17]: 1.208
LQT-Shortening Dose [9, 17]: 22 µM
LQT-Cessation Dose ([9]; LQT3 cardiomyocytes): 66 µM
LQT-Fold Shortening ([9]; LQT3 cardiomyocytes): 1.208
LQT-Cess. Dose [9]: 66 µM
half-life at 50 μM [10]: > 0.0417 days

cessation of beating (in words) ([9]; at the concentrations examined, cells not specified): did not induce cessation of beating
Compound: NC(COc1ccccc1C(F)(F)F)c1ccc2ccccc2c1 (stereo not shown) [Compound 134]
prolongation effects in wild type cells ([1]; wild type cells): some prolongation effects
EC50 ([7]; read-out: LQT-EC50 (μM) Shortening, LQT-3 cardiomyocytes, AP shortening): 1.79 µM
LQT-Fold Shortening ([9]; LQT-3 cardiomyocytes): 1.515
LQT-Cessation Dose (μM) ([9]; LQT-3 cardiomyocytes, cessation of beating): No cessation of beating
LQT-3 shortening (in words) ([9]; LQT-3 cells): highly potent
EC50 [13]: 24.4 µM

Mouse S-9, nmol metab./incub. [12]: 1.4 nmol metab./incub.
Human FMO1, nmol metab./incub. (Human FMO1): 0.06 nmol metab./incub.
Human S-9, nmol metab./incub. [6]: 1.4 nmol metab./incub.
Human CYP3A4, nmol metab./incub. (CYP3A4): 1.5 nmol metab./incub.
Compound: Cl.[2H]C(N)(COc1c(C)cccc1C)c1ccccc1 (stereo not shown) [Compound 136]
